These are literature values, as cited in patent US4384994A, “Renin inhibitory peptides” (Merck & Co., Inc., priority 1981, dated 1983).

One data set concerns the target pepsin (Homo sapiens, UniProt P0DJD8). To be noted: Umezawa et al. 1970.
Another data set has as its system hog renin. To be noted: nephrectomized rats, after injection of hog renin; Gross et al. 1971.

Chain of pepsin (P0DJD8 63-388): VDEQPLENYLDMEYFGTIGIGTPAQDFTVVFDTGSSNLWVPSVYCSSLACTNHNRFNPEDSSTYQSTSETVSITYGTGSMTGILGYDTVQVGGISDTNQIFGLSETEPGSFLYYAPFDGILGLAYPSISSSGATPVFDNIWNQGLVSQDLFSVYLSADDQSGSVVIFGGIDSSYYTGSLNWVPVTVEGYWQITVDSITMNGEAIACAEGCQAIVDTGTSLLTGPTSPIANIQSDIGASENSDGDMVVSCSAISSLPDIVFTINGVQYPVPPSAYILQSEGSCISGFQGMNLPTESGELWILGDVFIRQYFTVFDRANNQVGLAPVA

For the substance pepstatin, the inhibition of pepsin entry on pepsin is recorded as “inhibitor”. Moreover, the “blood pressure in vivo” value in the data set on hog renin is given as “reduce blood pressure”.
